Assay results published in patent US6710060B2, “4-hydroxypiperidine derivatives having antiarrhythmic activity” (Mochida Pharmaceutical Co., Ltd., priority 1999, dated 2004).
Where a name gives a salt, the structure may show the parent alone. Read-outs that look alike come from different tables or passages of the source.

What was measured:
[1] = system: Ischemia-Reperfusion Induced Arrythmia Model in Rats; assay: Suppression effect on ischemia-reperfusion induced arrythmia in rats; type: in vivo, rat
Protocol: [Suppression Effect on Ischemia-Reperfusion Induced Arrythmia in Rats]
The test compounds were administered to rats starved from a day before by gavage at a dosage of 10 mL/kg under an awaken condition. The rats were anesthetized with 60 mg/kg (i.p.) of sodium pentobarbital after 35 minutes passed from the administration, and were fixed on a warmed sheet in supine position. The body temperature was kept at 37° C. during the experiment, and artificial respiration was started under a condition of 15 mL/Kg and 55 strokes/minutes. […] Then, the left chest was open, and the left major coronary artery at an atrium side was sewed using a needle with a thread in order to ligate the coronary artery. After stabilizing for about 10 minutes (after 60 minutes passed from the administration), the coronary artery was ligated for 5 minutes, and re-perfused for 10 minutes thereafter. The ligation of the coronary artery was conducted by inserting a suture through a snare made of a polyethylene tube and pulling the both ends of the suture, followed by pressing the snare onto the heart. The re-perfusion was conducted by removing the snare. The aortic blood pressure was measured with a pressure transducer. An electrocardiogram was led by a standard lead II. […] After the completion of the experiments, generation of ventricular fibrillation was confirmed for each individual using an analysis software running on the personal computer, and incidence (%) of the ventricular fibrillation was determined for each administration group.

[2] = system: Electrocardiogram in Rats; assay: Effect on electrocardiogram in rats; type: in vivo; conditions: 5 mg/kg intravenous, anesthetized rat, two minutes after administration
Protocol: [Effect on Electrocardiogram in Rats]
After anesthetizing with 1.5 g/kg (s.c.) of urethane, a rat was fixed on a warm plate at its supination. Polyethylene tubes for administering a test compound and for measuring the blood pressure were inserted into and fixed to the jugular vein and femoral artery, respectively. The blood pressure of the artery was measured using a pressure transducer. An electrode was attached to the animal, electrocardiograms were led by the standard lead II. The heart rate was measured by using a heart rate counter. The test compound was given by intravenous injection when the blood pressure and heat rate had been stabilized after the operation. […] Each parameter on the electrocardiogram was processed using an analysis software running on the personal computer to calculate the rate of change as compared with that before administration.

[3] = system: isolated cardiac muscle cells; assay: Suppression activity of veratrine-induced contracture of isolated cardiac muscle; type: cell-based; conditions: Cardiac muscle cell, 5 min; rat isolated cardiac muscle cells, veratrine 100 gg/mL, 5 minutes after addition, probit analysis; read-out: IC50 (concentration of the test compound when half of the cells were contracted)
Protocol: [Suppression Activity of Veratrine-Induced Contracture of Isolated Cardiac Muscle]
Rats were anesthetized with 40 mg/kg (i.p.) of pentobarbital sodium and held in supine postion, and heparin was injected through the jugular vein. […] A polyethylene tube filled with Krebs-Ringer-HEPES (KRH) solution (pH 7.4) containing 1 mM CaCl2 was inserted through the aorta in retrograde manner, and the tube was fixed. The heart was extracted simultaneously with perfusion of the KRH solution at a hydraulic pressure of 70 cm water column. After thoroughly flushing the remaining blood by spontaneous contraction of the heart, stroke of the heart was halted by perfusion of the Ca^2+ free KRH solution for 10 minutes. The perfusion solutions described above were used after oxygenation with a mixed gas containing 95% O2 and 5% CO2 and keeping at a temperature of 37° C. Then, a KRH solution containing 25 μM CaCl2, 0.06% collagenase and 0.1% albumin was perfused for 20 minutes at 37° C. until the heart was soften. The ventricles were cut into pieces in the collagenase solution at 37° C., followed by an enzyme treatment for 10 minutes while aerating the solution with the mixed gas of 95% O2/5% CO2. The cells were dispersed by pipetting, and connective tissues were removed from the dispersed cells by filtering with a stainless steel mesh. After halting the enzyme reaction by adding albumin in the filtrate, the supernatant was discarded by centrifugation. The cells were suspended in the KRH solution containing 25 μM CaCl2 and 1% albumin, and the Ca^2+ concentration was increased stepwise by sequentially adding the CaCl2 solution in the suspension to a final concentration of 0.5 mM. A pellet of the cells was obtained by centrifugation after allowing the suspension to stand for 10 minutes. The pellet of the cells was laid on a column (10 cm in height and 15 mm in diameter) filled with the KRH solution containing 1 mM CaCl2 and 2% albumin, and the column was allowed to stand for 5 to 10 minutes. The supernatant was gently removed, and the number of rod-shaped cells in the precipitated cells was counted. The cells were re-suspended in the KRH solution containing 1 mM CaCl2 and 0.1% albumin, and pipetted into each well of a 48 well multi-plate (3548, COSTER) coated with poly-L-lysine so that each well contains 0.5 mL of the cell suspension with 1×10^4 cells/well. The suspension in each well was aerated with a mixed gas of 95% O2/5% CO2 at 37° C. for 1 hour to allow the cells to adhere on the bottom of the well. […] Then, the medium was replaced with a KRH solution containing a test compound, 0.025% lactic acid and 1 mM CaCl2, followed by aerating with a mixed gas containing 95% O2/5% CO2 at 37° C. for 30 minutes. After taking a photograph under a microscope, a KRH solution containing veratrine, 0.025% lactic acid and 1 mM CaCl2 was added to each well so that the final concentration of veratrin becomes 100 gg/mL, followed by taking a photograph of morphological changes of the cells after 5 minutes passed from the addition. A change from the rod-shape cell to a spherical cell was defined as contraction by veratrine. Veratrine in this concentration can contract all the cells. The concentration of the test compound when half of the cells were contracted was defined as IC50 (μmol/L) that can be calculated by a probit analysis.

[4] = Table 2-2, 5 mg/kg by gavage, solvent group 57.1
[5] = oral gavage once a day for 14 days, 6-week aged female rats

Row | SMILES | Incidence (%) of the ventricular fibrillation [1, 4] | PQ Distance (rate of change) [2] | QRS Width (rate of change) [2] | IC50 [3] | further results
1 | CC(C)Oc1ccc(N(C)CCC2(O)CCN(Cc3ccc(Br)cc3F)CC2)cc1 [Example 240, 1-(4-bromo-2-fluorophenylmethyl)-4-[2-[N-methyl-N-(4-isopropoxyphenyl)amino]ethyl]piperidin-4-ol dihydrochloride] | 0.0% | — (The rate of change at two minutes after administration is 15% or less as compared with that before administration.) | — (The rate of change at two minutes after administration is 15% or less as compared with that before administration.) | 700 nM | 
2 | CC(C)Oc1ccc(N(C)CCC2(O)CCN(Cc3ccc(OC(F)(F)F)cc3)CC2)cc1 [Example 236, 4-[2-[N-methyl-N-(4-isopropoxyphenyl)amino]ethyl]-1-(4-trifluoromethoxyphenylmethyl)piperidin-4-ol dihydrochloride] |  |  |  | 300 nM | 
3 | CC(C)Oc1ccc(N(C)CCC2(O)CCN(Cc3ccc(C(F)(F)F)cc3)CC2)cc1 [Example 221, 4-[2-[N-methyl-N-(4-isopropoxyphenyl)amino]ethyl]-1-[4-(trifluoromethyl)phenylmethyl]piperidin-4-ol dihydrochloride] |  |  |  | 300 nM | 
4 | CCCCOc1ccc(N(C)CCC2(O)CCN(CCc3ccc(F)cc3)CC2)cc1 [Example 176, 4-[2-[N-(4-n-butoxyphenyl)-N-methylamino]ethyl]-1-[2-(4-fluorophenyl)ethyl]piperidin-4-ol dihydrochloride] |  | — (The rate of change at two minutes after administration is 15% or less as compared with that before administration.) | — (The rate of change at two minutes after administration is 15% or less as compared with that before administration.) | 900 nM | 
5 | COC(=O)c1ccc(CN2CCC(O)(CCN(C)c3ccc(OC(C)C)cc3)CC2)cc1 [Example 233, 1-[4-(methoxycarbonyl)phenylmethyl]-4-[2-[N-methyl-N-(4-isopropoxyphenyl)amino]ethylipiperidin-4-oldihydrochloride] | 28.6% | — (The rate of change at two minutes after administration is 15% or less as compared with that before administration.) | — (The rate of change at two minutes after administration is 15% or less as compared with that before administration.) |  | daily dosage at which no fatal cases were observed (female Crj(SD)IGS rats; female, Crj(SD)IGS, rat, in vivo, po, 14 days): ≤ 50 mg/kg
6 | CCCCOc1ccc(N(C)CCC2(O)CCN(CCc3ccc(F)cc3F)CC2)cc1 [Example 183, 4-[2-[N-(4-n-butoxyphenyl)-N-methylamino]ethyl]-1-[2-(2,4-difluorophenyl)ethyl]piperidin-4-ol dihydrochloride] |  |  |  | 1000 nM | 
7 | CCCCOc1ccc(N(C)CC2(O)CCN(Cc3ccccc3)CC2)cc1 [Example 210, 1-benzyl-4-[N-(4-n-butoxyphenyl)-N-methylamino]-methylpiperidin-4-ol monomaleate] |  |  |  | 900 nM | 
8 | CC(C)Oc1ccc(N(C)CCC2(O)CCN(C(c3ccccc3)c3ccccc3)CC2)cc1 [Example 278, 1-diphenylmethyl-4-[2-[N-methyl-N-(4-isopropoxyphenyl)-amino]ethyl]piperidin-4-ol dihydrochloride] | 0.0% | — (The rate of change at two minutes after administration is 15% or less as compared with that before administration.) | — (The rate of change at two minutes after administration is 15% or less as compared with that before administration.) | 300 nM | daily dosage at which no fatal cases were observed (female Crj(SD)IGS rats; [5]): ≤ 20 mg/kg
9 | CC(C)Oc1ccc(N(C)CCC2(O)CCN(Cc3ccc(Br)cc3)CC2)cc1 [Example 220, 1-(4-bromophenylmethyl)-4-[2-[N-methyl-N-(4-isopropoxyphenyl)amino]ethyl]piperidin-4-ol dihydrochloride] |  |  |  | 700 nM | 
10 | CCCCOc1ccc(N(C)CCC2(O)CCN(Cc3ccccc3)CC2)cc1 [Example 146, 1-benzyl-4-[2-[N-(4-n-butoxyphenyl)-N-methylamino]ethyl]piperidin-4-ol dihydrochloride] |  | — (The rate of change at two minutes after administration is 15% or less as compared with that before administration.) | — (The rate of change at two minutes after administration is 15% or less as compared with that before administration.) | 1200 nM | Incidence (%) of the ventricular fibrillation ([1]; Table 2-1, 5 mg/kg by gavage, ligation 60 min after administration, solvent group 63.6): 30.0%; Incidence (%) of the ventricular fibrillation ([1]; Table 2-1, 10 mg/kg by gavage, solvent group 63.6): 11.1%; Incidence (%) of the ventricular fibrillation ([1]; Table 2-1, 20 mg/kg by gavage, solvent group 63.6): 0.0%; daily dosage at which no fatal cases were observed (female Crj(SD)IGS rats; [5]): ≤ 100 mg/kg
